In general, EC50 refers to the concentration needed to bring the measured effect to its halfway point.

One assay has as its target T1, FPR2 (Homo sapiens, UniProt P25090).
T1 construct: expressed in transfected cells; host or cells: CHO-Gα16 cells
T1 sequence (P25090 1-351): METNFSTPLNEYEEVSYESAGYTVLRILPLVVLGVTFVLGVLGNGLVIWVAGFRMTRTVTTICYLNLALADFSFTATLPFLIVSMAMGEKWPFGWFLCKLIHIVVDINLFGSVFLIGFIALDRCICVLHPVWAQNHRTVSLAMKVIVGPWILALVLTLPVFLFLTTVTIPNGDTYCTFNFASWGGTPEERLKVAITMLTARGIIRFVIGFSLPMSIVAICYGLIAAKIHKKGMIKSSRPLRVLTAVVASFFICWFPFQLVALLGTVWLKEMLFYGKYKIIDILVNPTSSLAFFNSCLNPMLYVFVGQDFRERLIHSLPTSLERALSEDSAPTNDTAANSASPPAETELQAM
Put plainly: Compound-induced calcium activity on FLIPR Tetra in Gα16 cells stably expressing FPR2. The format is cell-based. The conditions noted are these: for FPR2 Ga16-HEK293 (Rel. eff.): relative efficacy, value in brackets, table head Ga16-HEK293, text CHO-Gα16 cells; for EC50: table head Ga16-HEK293, text CHO-Gα16 cells stably expressing FPR2, tested 0.61 to 10,000 nM. The protocol:
(§1) CHO-Gα16 cells stably expressing FPR1 or FPR2 were cultured in (F12, 10% FBS, 1% PSA, 400 μg/ml geneticin and 50 μg/ml hygromycin). In general, the day before the experiment, 18,000 cells/well were plated in a 384-well clear bottom poly-D-lysine coated plate. The following day the screening compound-induced calcium activity was assayed on the FLIPR^Tetra. The drug plates were prepared in 384-well microplates using the EP3 and the MultiPROBE robotic liquid handling systems. Compounds were tested at concentrations ranging from 0.61 to 10,000 nM. Results are expressed as EC50 (nM) and efficacy values.

A further assay concerns the target T2, FPR1 (Homo sapiens, UniProt P21462).
T2 construct: expressed in transfected cells; host or cells: CHO-Gα16 cells
T2 sequence (P21462 1-350): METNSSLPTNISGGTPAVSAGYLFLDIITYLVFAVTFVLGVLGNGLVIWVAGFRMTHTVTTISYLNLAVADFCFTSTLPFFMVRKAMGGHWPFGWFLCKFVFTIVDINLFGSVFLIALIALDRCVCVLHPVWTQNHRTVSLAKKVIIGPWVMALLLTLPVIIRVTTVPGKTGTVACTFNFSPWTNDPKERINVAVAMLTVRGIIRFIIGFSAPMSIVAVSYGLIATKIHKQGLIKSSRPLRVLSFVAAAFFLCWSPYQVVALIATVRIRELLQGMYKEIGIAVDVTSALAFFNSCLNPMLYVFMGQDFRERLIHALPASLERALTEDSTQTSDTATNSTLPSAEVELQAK
In words: Compound-induced calcium activity on FLIPR Tetra in Gα16 cells stably expressing FPR1. The format is cell-based. The conditions noted are these: for FPR1 Ga16-HEK293 (Rel. eff.): relative efficacy, value in brackets, table head Ga16-HEK293, text CHO-Gα16 cells; for EC50: table head Ga16-HEK293, text CHO-Gα16 cells stably expressing FPR1, tested 0.61 to 10,000 nM. The protocol: as §1

For `CCC[C@H](NC(=O)CNC(=O)Nc1ccc(Br)cc1)C(=O)O` [Compound 6, (S)-2-(2-(3-(4-bromophenyl)ureido)acetamido)pentanoic acid], at FPR2, the “FPR2 Ga16-HEK293 (Rel. eff.)” value is listed as 1.05 and the EC50 came out at 308 nM. Further, at FPR1, the “FPR1 Ga16-HEK293 (Rel. eff.)” value came out at 0.98 and the 50% effective concentration (EC50) worked out at 4.93 nM.
The like results for `O=C(CNC(=O)Nc1ccc(Br)cc1)N[C@@H](Cc1ccccc1)C(=O)O` [Compound 4, (S)-2-(2-(3-(4-bromophenyl)ureido)acetamido)-3-phenylpropanoic acid] were, in that order, 1.07, 356 nM, 0.97 and 14.7 nM.
For `CC(C)C[C@H](NC(=O)CNC(=O)Nc1ccc(Br)cc1)C(=O)O` [Compound 1, (S)-2-(2-(3-(4-bromophenyl)ureido)acetamido)-4-methylpentanoic acid], at FPR2, the “FPR2 Ga16-HEK293 (Rel. eff.)” value came to 0.91 and the 50% effective concentration (EC50) was found to be 224 nM. In addition, on FPR1, the “FPR1 Ga16-HEK293 (Rel. eff.)” value was 1.00 and the EC50 came out at 0.58 nM.
As for `CC(C)C[C@H](NC(=O)CCNC(=O)Nc1ccc(Br)cc1)C(=O)O` [Compound 5, (S)-2-(3-(3-(4-bromophenyl)ureido)propanamido)-4-methylpentanoic acid], at FPR2, the “FPR2 Ga16-HEK293 (Rel. eff.)” value worked out at 0.81 and the concentration for a half-maximal effect (EC50) came out at 5630 nM. On FPR1, the “FPR1 Ga16-HEK293 (Rel. eff.)” value is 0.99 and the EC50 is 76 nM.

The values are drawn from US20240025844A1, “PHENYL UREA ANALOGS AS FORMYL PEPTIDE RECEPTOR 1 (FPR1) SELECTIVE AGONISTS” (Allergan, Inc., priority 2018, published 2024).
